From PMC8453635, “Piperidine Azasugars Bearing Lipophilic Chains: Stereoselective Synthesis and Biological Activity as Inhibitors of Glucocerebrosidase (GCase)” (The Journal of Organic Chemistry, 2021)

Each compound was assayed against T1, β-mannosidase (Homo sapiens, UniProt O00462) (assay: Human lysosomal glycosidase selectivity screening (leukocyte homogenate)). Details: 1 mM, read-out: percentage of inhibition, β-Man.
T1 construct: from leukocytes isolated from healthy donors (controls); from tissue; host or cells: leukocytes from healthy donors, sonicated homogenate
T1 sequence (O00462 18-879): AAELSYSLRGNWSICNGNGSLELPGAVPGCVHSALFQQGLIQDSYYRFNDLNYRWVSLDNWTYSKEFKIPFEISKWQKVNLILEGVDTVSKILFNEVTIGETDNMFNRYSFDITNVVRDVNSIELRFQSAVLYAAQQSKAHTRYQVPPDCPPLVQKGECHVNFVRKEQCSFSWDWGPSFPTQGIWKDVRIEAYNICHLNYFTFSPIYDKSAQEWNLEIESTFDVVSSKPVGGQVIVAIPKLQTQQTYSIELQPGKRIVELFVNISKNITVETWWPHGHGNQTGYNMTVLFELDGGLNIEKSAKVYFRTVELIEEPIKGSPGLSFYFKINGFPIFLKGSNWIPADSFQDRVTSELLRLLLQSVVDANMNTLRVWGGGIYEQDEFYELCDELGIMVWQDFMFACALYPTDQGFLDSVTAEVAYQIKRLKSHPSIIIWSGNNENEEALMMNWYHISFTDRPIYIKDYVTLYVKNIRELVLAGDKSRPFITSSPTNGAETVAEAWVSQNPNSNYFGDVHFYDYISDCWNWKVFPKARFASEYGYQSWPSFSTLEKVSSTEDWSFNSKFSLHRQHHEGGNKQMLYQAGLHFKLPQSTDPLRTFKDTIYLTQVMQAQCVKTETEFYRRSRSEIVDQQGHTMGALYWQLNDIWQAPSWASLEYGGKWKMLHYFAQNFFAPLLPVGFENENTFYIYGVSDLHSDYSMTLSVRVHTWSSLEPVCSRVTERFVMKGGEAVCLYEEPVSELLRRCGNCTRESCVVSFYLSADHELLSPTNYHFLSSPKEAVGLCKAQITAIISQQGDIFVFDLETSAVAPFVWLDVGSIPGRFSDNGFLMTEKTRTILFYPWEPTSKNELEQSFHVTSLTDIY
Type: biochemical
Experimental: In order to avoid undesired inhibitory side effects of a potential new drug, it has to be selective for a given target. The selectivity of the newly synthesized compounds 14, 15, and 33·HCl toward GCase was then investigated, evaluating their inhibition at 1 mM concentration toward six other lysosomal glycosidases (namely, α-and β-mannosidases, α- and β-galactosidases, α-fucosidase, and α-glucosidase) in cell homogenates (leucocytes or lymphocytes) isolated from healthy donors. […] Indeed, only moderate inhibitory activity (ca. 50%) was found toward human β-galactosidase for both piperidines 14 and 15, while negligible inhibitory activity was detected in all other cases.
(§1) The effect of 1 mM concentration of 14, 15, and 33·HCl was assayed toward six lysosomal glycosidases other than GCase, namely, α-mannosidase, β-mannosidase, α-galactosidase, β-galactosidase, α-fucosidase from leukocytes isolated from healthy donors (controls) and α-glucosidase from lymphocytes isolated from healthy donors’ flesh blood (controls). Isolated leukocytes or lymphocytes were disrupted by sonication, and a micro BCA protein assay kit (Sigma-Aldrich) was used to determine the total protein amount for the enzymatic assay, according to the manufacturer’s instructions (for more details, see the Supporting Information section).
Selectivity of compounds 14, 15 and 33.HCl towards lysosomal enzymes.
as §1, with “15” for “15,”, “33.HCl” for “33·HCl”, “towards” for “toward”, “namely:” for “namely,”, “(Sigma–Aldrich)” for “(Sigma-Aldrich)”, “manufacturer instructions. […]” for “manufacturer’s instructions (for more details, see the Supporting Information section).”
Molecular Devices). Inhibition is given with respect to the control (without azasugar). Data are mean SD (n=3). […]
Inhibition is given with respect to the control (without azasugar). Data are mean SD (n=3). […]
(1 picture or pasted object on this page, not shown here) […]
α-Fucosidase activity was measured in a flat -bottomed 96 -well plate. Azasugar solution (3 μL), 4.29 μg/μL leukocytes homogenate 1:3 (7 μL), and substrate 4 -methylumbe lliferyl α-L-fucopyranoside (1.51 mM, 20 μL, Sigma –Aldrich) in Na phosphate/citrate buffer (0.2:0.1, M/M, pH 5.5) were incubated at 37 °C for 1 h. […]
Data are mean SD (n=3). S74 […]
α-Glucosidase activity was measured in a flat –bottomed 96 well plate. Azasugar solution (3 µL), 4.29 µg/µL lymphocytes homogenate (7µL) and 20 µL of substrate solution of 4 -methylumbelliferyl -α-D-glucopyranoside (Sigma -Aldrich) in Na a cetate buffer (0.2 M, pH 4.0) were incubated for 1 h at 37 °C. The reaction was stopped by the addition of a solution of sodium carbonate (200 µL; 0.5M, pH 10.7) containing Triton X -100 (0.0025 %), and the fluorescence of 4 -methylumbelliferone released by α-glucosidase activity was measured in […]
respect to the control (without azasugar). Data are means of 3 values. […]
Figure S 48. Activity of a panel of 6 hu man lysosomal glycosidases in the presence of compounds 14, 15 and 33.HCl (1 mM ). The corresponding calculated percentage of inhibition is indicated above each bar.

SMILES	inhibition at 1000 µM
CCCCCCCC[C@H]1[C@@H](O)[C@H](O)[C@H](O)CN1CCCCCCCC [compound 14, (2S,3R,4R,5R)-1,2-Dioctylpiperidine-3,4,5-triol]	0%
CCCCCCCC[C@@H]1[C@@H](O)[C@H](O)[C@H](O)CN1CCCCCCCC [compound 15, (2R,3R,4R,5R)-1,2-Dioctylpiperidine-3,4,5-triol]	1%
CCCCCCCC[C@@H]1[C@@H](O)[C@H](O)[C@H](O)CN1C(CCCCCCC)CCCCCCC.Cl [compound 33·HCl, (2R,3R,4R,5R)-2-Octyl-1-(pentadecan-8-yl)-piperidine-3,4,5-triol Hydrochloride]	2%
